Test results taken from US8889704B2 (Array BioPharma Inc., priority 2011, dated 2014).
Counter-ions that a name gives are not always drawn.

Experiments:
Type in all cases: biochemical
recombinant rat PIM-3 = recombinant rat PIM-3 (Rattus norvegicus, UniProt O70444); experiment: PIM-3 Assay (as Example A); conditions: averaged IC50; 30 μM ATP, 3.75 μM PIM2tide, 0.5 nM PIM-3
Summary of the method: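 Recombinant rat PIM-3 (0.5 nM) with 3.75 μM PIM2tide and 30 μM [γ-33P]ATP in MOPS pH 7.4 buffer, 60 min at 22 °C; labelled peptide captured on phosphocellulose filters and counted by scintillation. 10-point curve (top dose 10 μM, 2% DMSO); IC50 from 4-parameter fit of percent of control.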

[1] = molecular target: T1, GST-tagged recombinant full-length human Pim-2 (Homo sapiens, UniProt Q9P1W9); experiment: PIM-2 Assay (as Example A); conditions: averaged IC50; 4 μM ATP, 1.0 μM PIM2tide, 1.5 nM Pim-2
T1 construct: GST-tagged recombinant full-length human Pim-2; GST
Summary of the method: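 Radiometric filter-binding assay: GST-tagged full-length human Pim-2 (1.5 nM) phosphorylates 1.0 μM PIM2tide with 4 μM [γ-33P]ATP for 60 min at 22 °C in pH 7.4 MOPS buffer, 2% DMSO. 10-point 3-fold dilutions from 10 μM top dose; IC50 from 4-parameter fit of percent of control.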

PIM-1 = PIM-1 (Homo sapiens, UniProt P11309); experiment: Enzyme PIM-1 Assay ([33P]ATP incorporation into PIM2tide, filter plate); conditions: averaged IC50; 35 μM ATP, 7.5 μM PIM2tide, 0.25 nM PIM-1, 60 min at 22° C.
Summary of the method: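 Radiometric assay: 0.25 nM PIM-1 phosphorylates 7.5 μM PIM2tide with 35 μM [γ-33P]ATP in 20 mM MOPS pH 7.4, 10 mM MgCl2, 1 mM DTT, 0.005% Tween-20, 60 min at 22 °C. Product captured on P81 filters, scintillation counted; 10-point 3-fold curve from 10 μM top, 2% DMSO, IC50 by 4-parameter logistic fit of POC.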

T1 sequence (Q9P1W9 whole entry): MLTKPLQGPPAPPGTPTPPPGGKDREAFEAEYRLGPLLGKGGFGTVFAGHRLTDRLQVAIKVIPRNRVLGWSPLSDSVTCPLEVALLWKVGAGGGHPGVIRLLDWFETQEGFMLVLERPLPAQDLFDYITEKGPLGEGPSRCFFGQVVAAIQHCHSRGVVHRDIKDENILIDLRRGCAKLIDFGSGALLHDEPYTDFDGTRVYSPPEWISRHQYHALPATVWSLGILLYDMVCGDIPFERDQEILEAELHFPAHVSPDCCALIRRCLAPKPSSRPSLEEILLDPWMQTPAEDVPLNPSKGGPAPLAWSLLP
Sequence of PIM-1 (P11309 whole entry, species assumed): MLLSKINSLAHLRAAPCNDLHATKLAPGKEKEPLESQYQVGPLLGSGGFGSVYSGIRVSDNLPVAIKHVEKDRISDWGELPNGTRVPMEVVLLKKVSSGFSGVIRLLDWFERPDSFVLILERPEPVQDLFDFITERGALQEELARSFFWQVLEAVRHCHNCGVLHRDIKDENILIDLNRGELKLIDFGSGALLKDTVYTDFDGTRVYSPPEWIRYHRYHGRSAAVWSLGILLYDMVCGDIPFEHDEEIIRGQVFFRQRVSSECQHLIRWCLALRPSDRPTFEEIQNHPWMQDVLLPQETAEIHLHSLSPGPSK

Structure (SMILES) | IC50 (recombinant rat PIM-3) [nM] | IC50 [1] [nM] | IC50 (PIM-1) [nM]
CC(C)(O)COc1cc2nc(-c3nnc4ccc([C@H](N5CC[C@](C)(N)C5)C(F)(F)F)cn34)ccc2cc1F [Example 301, 1-(2-(6-((S)-1-((S)-3-amino-3-methylpyrrolidin-1-yl)-2,2,2-trifluoroethyl)-[1,2,4]triazolo[4,3-a]pyridin-3-yl)-6-fluoroquinolin-7-yloxy)-2-methylpropan-2-ol dihydrochloride] | 0.2 | 14 | 0.2
CC(C)(O)COc1cc2nc(-c3nnc4ccc([C@@H](N5CC[C@H](N)C5)C(F)(F)F)cn34)ccc2cc1F [Example 302, 1-(2-(6-((R)-1-((S)-3-aminopyrrolidin-1-yl)-2,2,2-trifluoroethyl)-[1,2,4]triazolo[4,3-a]pyridin-3-yl)-6-fluoroquinolin-7-yloxy)-2-methylpropan-2-ol dihydrochloride] | 0.3 | 69 | 0.22
COC[C@@H](C)Oc1cccc2ccc(-c3nnc4ccc([C@@H](N5CC[C@H](N(C)C)C5)C(F)(F)F)cn34)nc12 [Example 303, (S)—N,N-dimethyl-1-((R)-2,2,2-trifluoro-1-(3-(8-((R)-1-methoxypropan-2-yloxy)quinolin-2-yl)-[1,2,4]triazolo[4,3-a]pyridin-6-yl)ethyl)pyrrolidin-3-amine dihydrochloride] | 5.85 | 242 | 1.33
CO[C@@H](C)COc1ccc2ccc(-c3nnc4ccc([C@H](N5CC[C@](C)(N)C5)C(F)(F)F)cn34)nc2c1 [Example 304, (S)-3-methyl-1-((S)-2,2,2-trifluoro-1-(3-(7-((S)-2-methoxypropoxy)quinolin-2-yl)-[1,2,4]triazolo[4,3-a]pyridin-6-yl)ethyl)pyrrolidin-3-amine] | 0.3 | 65.1 | 0.26
CO[C@H](C)COc1ccc2ccc(-c3nnc4ccc([C@H](N5CC[C@](C)(N)C5)C(F)(F)F)cn34)nc2c1 [Example 305, (S)-3-methyl-1-((S)-2,2,2-trifluoro-1-(3-(7-((R)-2-methoxypropoxy)quinolin-2-yl)-[1,2,4]triazolo[4,3-a]pyridin-6-yl)ethyl)pyrrolidin-3-amine] | 0.4 | 71 | 0.96
CCOCCOc1ccc2ccc(-c3nnc4ccc([C@H](N5CC[C@](C)(N)C5)C(F)(F)F)cn34)nc2c1 [Example 306, (S)-1-((S)-1-(3-(7-(2-ethoxyethoxy)quinolin-2-yl)-[1,2,4]triazolo[4,3-a]pyridin-6-yl)-2,2,2-trifluoroethyl)-3-methylpyrrolidin-3-amine] | 0.7 | 281 | 0.28

More lines, now with the values ahead:

IC50 (recombinant rat PIM-3) [nM] | IC50 [1] [nM] | IC50 (PIM-1) [nM] | Structure (SMILES)
6.9 | 62.4 | 1.64 | C[C@H](c1ccc2nnc(-c3ccc4cccc(C(C)(C)C)c4n3)n2c1)N1CC[C@H](N)C1 [Example 307, (S)-1-((R)-1-(3-(8-tert-butylquinolin-2-yl)-[1,2,4]triazolo[4,3-a]pyridin-6-yl)ethyl)pyrrolidin-3-amine trihydrochloride]
0.4 | 29.4 | 0.17 | C[C@@H](c1ccc2nnc(-c3ccc4cccc(C(C)(C)C)c4n3)n2c1)N1CC[C@H](N)C1 [Example 308, (S)-1-((S)-1-(3-(8-tert-butylquinolin-2-yl)-[1,2,4]triazolo[4,3-a]pyridin-6-yl)ethyl)pyrrolidin-3-amine trihydrochloride]
3 | 407 | 1.18 | CCOc1cc2nc(-c3nnc4ccc([C@@H](C)N5CC[C@H](N)C5)cn34)ccc2cc1F [Example 309, (S)-1-((R)-1-(3-(7-ethoxy-6-fluoroquinolin-2-yl)-[1,2,4]triazolo[4,3-a]pyridin-6-yl)ethyl)pyrrolidin-3-amine trihydrochloride]
1.1 | 415 | 0.46 | CCOc1cc2nc(-c3nnc4ccc([C@H](C)N5CC[C@H](N)C5)cn34)ccc2cc1F [Example 310, (S)-1-((S)-1-(3-(7-ethoxy-6-fluoroquinolin-2-yl)-[1,2,4]triazolo[4,3-a]pyridin-6-yl)ethyl)pyrrolidin-3-amine trihydrochloride]
